Measurements reported in patent US11696913B2, “Prolonged ectoparasite-controlling agent for animal” (MITSUI CHEMICALS AGRO, INC., priority 2017, dated 2023).

How the values were obtained:
Amblyomma americanum = test: In vitro contact test with hard ticks (Amblyomma americanum nymphs); details: read-out: acaricidal activity; for pest or weed control at 0.2 µg/cm2, 0.2 µg/cm2: dose 0.2 μg/cm^2, 48 h; for pest or weed control at 1 µg/cm2, 1 µg/cm2: dose 1 μg/cm^2, 48 h
Method in brief: (§1)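 Adult R. sanguineus, I. ricinus, D. variabilis or A. americanum nymphs exposed in glass vials coated with compound from acetone (900 ppm gives 5 μg/cm^2). Held 48 h at room temperature (R. sanguineus) or 21° C., 85% rel. hum.; then heated at 45-50° C. ≤5 min, motionless or uncoordinated ticks scored dead/moribund.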

Ctenocephalides felis [1] = test: In vitro contact test with fleas; details: read-out: insecticidal activity; for pest or weed control at 0.04 µg/cm2, 0.04 µg/cm2: dose 0.04 μg/cm^2, dead or moribund fleas after 48 h; for pest or weed control at 0.2 µg/cm2, 0.2 µg/cm2: dose 0.2 μg/cm^2, dead or moribund fleas after 48 h; for pest or weed control at 1 µg/cm2, 1 µg/cm2: dose 1 μg/cm^2, dead or moribund fleas after 48 h
Method in brief: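 Adult male and female cat fleas (5-10 per tube) placed in glass tubes coated with compound from acetone solution (900 ppm gives 5 μg/cm^2), kept at room temperature and ambient humidity. After 48 h, motionless or uncoordinated fleas scored dead or moribund; activity expressed as % dead or moribund.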

Laodelphax striatellus = test: Insecticidal testing against small brown planthopper; assay type: in vivo; details: 144 h, concentration 100 ppm, sprayed rice seedlings, after 6 days, read-out: pesticidal rate
Method in brief: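 Acetone solution of compound at a set concentration sprayed onto rice seedlings, air-dried, then exposed to 10 planthoppers (one group). Held at 25° C; survival rate recorded after 6 days.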

Ctenocephalides felis [2] = test: Ctenocephalides felis in-vitro feeding test with fleas (CTECFE oral); details: 48 hours, read-out: insecticidal feeding activity; for pest or weed control at 0.16 ppm: dose 0.16 ppm in citrated cattle blood; for pest or weed control at 0.8 ppm: dose 0.8 ppm in citrated cattle blood; for pest or weed control at 4 ppm: dose 4 ppm in citrated cattle blood; for pest or weed control at 0.032 ppm: dose 0.032 ppm in citrated cattle blood
Method in brief: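 About 20 unfed adult cat fleas fed through parafilm on citrated cattle blood containing test substance (DMSO solution diluted in blood), held at about 37° C. Kill rate scored after 48 hours, 100% meaning all fleas dead.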

[3] = test system: Rhipicephalus (Boophilus) microplus; test: In vitro injection test with Rhipicephalus (Boophilus) microplus (BOOPMI Inj); details: 168 h, laid fertile eggs after 7 days, read-out: acaricidal activity; for pest or weed control at 6.4 ng: dose 0.0064 μg/animal injected; for pest or weed control at 32 ng: dose 0.032 μg/animal injected; for pest or weed control at 0.00016 mg: dose 0.16 μg/animal injected; for pest or weed control at 0.0008 mg: dose 0.8 μg/animal injected
Method in brief: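 Test substance in DMSO; 1 μl injected into abdomen of each of 5 engorged adult female ticks, then held at 28° C., 85% rel. hum. Activity scored after 7 days from laying of fertile eggs: 100% = no eggs or all infertile, 0% = all eggs fertile.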

Dermacentor variabilis = test: In vitro contact test with adult hard ticks (Dermacentor variabilis); details: read-out: acaricidal activity; for pest or weed control at 0.04 µg/cm2, 0.04 µg/cm2: dose 0.04 μg/cm^2, 48 h; for pest or weed control at 0.2 µg/cm2, 0.2 µg/cm2: dose 0.2 μg/cm^2, 48 h; for pest or weed control at 1 µg/cm2, 1 µg/cm2: dose 1 μg/cm^2, 48 h
Method in brief: as §1

Rhipicephalus sanguineus = test: In vitro contact test with adult hard ticks (Rhipicephalus sanguineus); details: read-out: acaricidal activity; for pest or weed control at 0.2 µg/cm2, 0.2 µg/cm2: dose 0.2 μg/cm^2, 48 h; for pest or weed control at 1 µg/cm2, 1 µg/cm2: dose 1 μg/cm^2, 48 h; for pest or weed control at 0.04 µg/cm2, 0.04 µg/cm2: dose 0.04 μg/cm^2, 48 h
Method in brief: as §1

Spodoptera litura = test: Insecticidal testing against common cutworm; assay type: in vivo; details: foliar, 144 h, concentration 100 ppm, cabbage leaf dip, second-stage larvae, after 6 days, read-out: pesticidal rate
Description: Insecticidal Testing Against Common Cutworm (Spodoptera litura)

Ixodes ricinus = test: In vitro contact test with adult hard ticks (Ixodes ricinus); details: read-out: acaricidal activity; for pest or weed control at 5 µg/cm2, 5 µg/cm2: dose 5 μg/cm^2, 48 h; for pest or weed control at 0.2 µg/cm2, 0.2 µg/cm2: dose 0.2 μg/cm^2, 48 h; for pest or weed control at 1 µg/cm2, 1 µg/cm2: dose 1 μg/cm^2, 48 h
Method in brief: as §1

Plutella xylostella = test: Insecticidal testing against diamondback moth; assay type: in vivo; details: foliar, 144 h, concentration 100 ppm, cabbage leaf dip, third-stage larvae, after 6 days, read-out: pesticidal rate
Description: Insecticidal Testing Against Diamondback Moth (Plutella xylostella)

Compound | pest or weed control at 0.2 µg/cm2, 0.2 µg/cm2 (Amblyomma americanum) [%] | pest or weed control at 1 µg/cm2, 1 µg/cm2 (Amblyomma americanum) [%] | pest or weed control at 0.2 µg/cm2, 0.2 µg/cm2 (Ctenocephalides felis [1]) [%] | pest or weed control at 1 µg/cm2, 1 µg/cm2 (Ctenocephalides felis [1]) [%] | pest or weed control at 100 ppm (Laodelphax striatellus) [%] | pest or weed control at 0.16 ppm (Ctenocephalides felis [2]) [%] | pest or weed control at 0.8 ppm (Ctenocephalides felis [2]) [%] | pest or weed control at 4 ppm (Ctenocephalides felis [2]) [%] | pest or weed control at 32 ng [3] [%] | pest or weed control at 0.00016 mg [3] [%] | pest or weed control at 0.0008 mg [3] [%] | pest or weed control at 0.04 µg/cm2, 0.04 µg/cm2 (Dermacentor variabilis) [%] | pest or weed control at 0.2 µg/cm2, 0.2 µg/cm2 (Dermacentor variabilis) [%] | pest or weed control at 1 µg/cm2, 1 µg/cm2 (Dermacentor variabilis) [%] | pest or weed control at 0.2 µg/cm2, 0.2 µg/cm2 (Rhipicephalus sanguineus) [%] | pest or weed control at 1 µg/cm2, 1 µg/cm2 (Rhipicephalus sanguineus) [%] | pest or weed control at 100 ppm (Spodoptera litura) [%] | pest or weed control at 5 µg/cm2, 5 µg/cm2 (Ixodes ricinus) [%] | pest or weed control at 100 ppm (Plutella xylostella) [%] | pest or weed control at 0.032 ppm (Ctenocephalides felis [2]) [%] | also measured
CN(C(=O)c1ccc(F)nc1)c1cccc(C(=O)Nc2c(I)cc(C(F)(C(F)(F)F)C(F)(F)C(F)(F)F)cc2C(F)(F)F)c1F (stereo not drawn) [Compound 81] | 90 | 90 | 95 | 95 | ≥ 70 | 95 | 95 | 95 | 100 | 100 | 100 | 90 | 90 | 90 | 90 | 90 | ≥ 70 | 90 | ≥ 70 |  | pest or weed control at 0.04 µg/cm2, 0.04 µg/cm2 (Ctenocephalides felis [1]): 95%; pest or weed control at 6.4 ng [3]: 100%
O=C(Nc1cccc(C(=O)Nc2c(I)cc(C(F)(C(F)(F)F)C(F)(F)F)cc2C(F)(F)F)c1F)c1ccc(F)c(F)c1 [Compound 86] | 90 | 90 | 95 | 95 | ≥ 70 | 95 | 95 | 95 | 100 | 100 | 100 | 90 | 90 | 90 | 90 | 90 | ≥ 70 | 90 | ≥ 70 | 95 | pest or weed control at 0.04 µg/cm2, 0.04 µg/cm2 (Amblyomma americanum; dose 0.04 μg/cm^2, 48 h): 90%; pest or weed control at 0.04 µg/cm2, 0.04 µg/cm2 (Ctenocephalides felis [1]): 95%; pest or weed control at 0.04 µg/cm2, 0.04 µg/cm2 (Rhipicephalus sanguineus): 90%; pest or weed control at 0.2 µg/cm2, 0.2 µg/cm2 (Ixodes ricinus): 90%; pest or weed control at 1 µg/cm2, 1 µg/cm2 (Ixodes ricinus): 90%
O=C(Nc1cccc(C(=O)Nc2c(I)cc(C(F)(C(F)(F)F)C(F)(F)C(F)(F)F)cc2C(F)(F)F)c1F)c1ccc(F)c(F)c1 (stereo not drawn) [Compound 78] | 90 | 90 | 95 | 95 | ≥ 70 | 95 | 95 | 95 | 100 | 100 | 100 | 90 | 90 | 90 | 90 | 90 | ≥ 70 | 90 | ≥ 70 |  | pest or weed control at 0.2 µg/cm2, 0.2 µg/cm2 (Ixodes ricinus): 90%; pest or weed control at 1 µg/cm2, 1 µg/cm2 (Ixodes ricinus): 90%
O=C(Nc1cccc(C(=O)Nc2c(I)cc(C(F)(C(F)(F)F)C(F)(F)F)cc2OC(F)F)c1F)c1ccc(F)cc1 [Compound 92] | 90 | 90 | 95 | 95 | ≥ 70 | 95 | 95 | 95 | 100 | 100 | 100 | 90 | 90 |  | 90 | 90 | ≥ 70 | 90 | ≥ 70 | 95 | pest or weed control at 0.04 µg/cm2, 0.04 µg/cm2 (Ctenocephalides felis [1]): 95%; pest or weed control at 6.4 ng [3]: 100%; pest or weed control at 0.04 µg/cm2, 0.04 µg/cm2 (Rhipicephalus sanguineus): 90%; pest or weed control at 0.2 µg/cm2, 0.2 µg/cm2 (Ixodes ricinus): 90%; pest or weed control at 1 µg/cm2, 1 µg/cm2 (Ixodes ricinus): 90%
O=C(Nc1cccc(C(=O)Nc2c(I)cc(C(F)(C(F)(F)F)C(F)(F)F)cc2OC(F)F)c1F)c1ccc(C(F)(F)F)nc1 [Compound 108] | 90 | 90 | 95 | 95 | ≥ 70 | 95 | 95 | 95 | 100 | 100 | 100 |  | 90 | 90 | 90 | 90 | ≥ 70 | 90 | ≥ 70 | 95 | pest or weed control at 0.0064 ppm (Ctenocephalides felis [2]; dose 0.0064 ppm in citrated cattle blood): 95%; pest or weed control at 0.04 µg/cm2, 0.04 µg/cm2 (Rhipicephalus sanguineus): 90%; pest or weed control at 0.2 µg/cm2, 0.2 µg/cm2 (Ixodes ricinus): 90%; pest or weed control at 1 µg/cm2, 1 µg/cm2 (Ixodes ricinus): 90%
O=C(Nc1cccc(C(=O)Nc2c(I)cc(C(F)(C(F)(F)F)C(F)(F)C(F)(F)F)cc2C(F)(F)F)c1F)c1ccc(C(F)(F)F)nc1 (stereo not drawn) [Compound 102] | 90 | 90 | 95 | 95 | ≥ 70 | 95 | 95 | 95 | 100 | 100 | 100 |  |  | 90 | 90 | 90 | ≥ 70 | 90 | ≥ 70 | 95 | 
